Reference: patent publication US20140018384A1, “QUINOLINONE DERIVATIVES FOR USE IN THE TREATMENT OF AN AUTOIMMUNE DISEASE AND/OR AN INFLAMMATORY DISEASE” (PRONOXIS AB, priority 2011, published 2014)
Like-named read-outs stand apart in the source and are kept apart here.

Legend:
PLB-985 cells = test: ROS production (isoluminol/HRP luminescence) in PLB-985 cells, Biological Example 1; type: cell-based; settings: 25 μM compound vs. DMSO
Procedure, shortened: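 Cells in HBSS received compound plus isoluminol and HRP; luminescence followed 10–30 min, AUC divided by control to give fold change in NADPH oxidase activity. HL-60: 50 μM compound vs blank; PLB-985: 25 μM compound vs blank or vs DMSO.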

Rat granulocytes = test: ROS production in thioglycollate-recruited rat granulocytes, isoluminol chemiluminescence assay; type: cell-based; settings: 25 μM compound, compared to DMSO control cells; FIGS. 2A and B
Protocol: (§1) FIG. 2: ROS production and effect on T cell arthritogeniciy of ROS inducing substances. A-B). Thioglycolate recruited rat granulocytes (in accordance with the procedure in Biological Example 3) were treated with 25 μM substance and measurement of ROS production was initiated immediately using an isoluminol based chemiluminescence assay (FIGS. 2A and 2B). […] C-D) Arthritogenic rat splenocytes were treated with 12.5 μM substance during 44 hours ex vivo incubation in presence of ConA (FIGS. 2C and 2D). Following incubation, cells were washed and injected i.p. into naive recipient rats (n=8-11). Disease severity in recipient rats was followed by investigation of macroscopic swelling and redness of the rat joints. Treatment with substance during ex vivo stimulation prevented transfer of arthritogenic T cells.
Rat granulocytes were recruited to the peritoneum by an i.p. injection of 2.4% thioglycollate medium (autoclaved). The peritoneal cavity was washed after 24 hours with ice cold HBSS. Collected cells were, after lysis of red blood cells, washed and resupended in HBSS. In a total volume of 100 μl, compound (25 μM), isoluminol (0.175 mg/ml) and horseradish peroxidase (fraction II) (1.75 U/ml) was added to the cells (0.1*10̂6/well) and resulting ROS production detected as a luminescence signal (fluorescent unit, FU) over time. […] All samples were analysed at least in duplicates.

arthritogenic T cells = test: Adoptive transfer of ex vivo treated arthritogenic T cells (splenocytes) to naive recipient DA rats; type: in vivo, rat; settings: for T cells capacity to transfer arthritis to naive recipients: 12.5 μM substance, 44 hours ex vivo with ConA, cells injected i.p. into DA rats, FIGS. 2C and D
Protocol: Arthritogenic cells were treated with H2O2 (176-1.76 μM) for 20 min and A) granulocytes and B) T cells (see FIGS. 1A and 1B) were investigated for intracellular ROS using a DHR-123 based flow cytometric assay. […] Arthritogenic cells were cultured in presence of Con A and w/wo H2O2 (176-1.76 μM) for 44 hours and then transferred to naïve recipient rats (n=7-9).
as §1
In order to investigate the effect of ROS on T cell arthritogenicity, spleens were collected from arthritis susceptible DA rats injected with the arthritis inducing oil pristane (0.5 ml per rat s.c.) day −13. Single cell suspensions were prepared from the spleens and red blood cells were lysed. After wash, cells were resuspended in cell culture medium containing concanavalin A (ConA) to a final concentration of 4.5×10̂6 cells/ml. […] The cells were incubated for 44 hours at 37° C. After incubation the cells were washed and resuspended in PBS to a final concentration of 60*10̂6 cells/ml. Cells were injected i.p. (1 ml/rat) into naïve recipient DA rats and disease was followed by macroscopic evaluation of disease.
In order to investigate the effect of ROS inducing substances on T cell arthritogenicity, spleens were collected from arthritis susceptible DA rats injected with the arthritis inducing oil pristane (0.5 ml per rat s.c.) day −13. Single cell suspensions were prepared from the spleens and red blood cells were lysed.
After wash, cells were resuspended in cell culture medium containing concanavalin A (ConA) to a final concentration of 4.5×10̂6 cells/ml. Substance A or B was added to the cells to a final concentration of 12.5 μM. The cells were incubated for 44 hours at 37° C. Control cells were incubated in presence of vehicle control (DMSO). After incubation the cells were washed and resuspended in PBS to a final concentration of C) 30*10̂6 and D) 60*10̂6 cells/ml. Cells were injected i.p. (1 ml/rat) into naïve recipient DA rats and disease was followed by macroscopic evaluation of disease (n=8-11).

HL-60 cells = test: ROS production (isoluminol/HRP luminescence) in HL-60 cells, Biological Example 1; type: cell-based; settings: Homo sapiens, 50 μM compound vs. blank, read-out: Activity A (fold increase of NADPH activity compared to control)
Protocol: To cells (HL-60 or PLB-985) in HBSS medium was added compound (25 or 50 μM), isoluminol and Horse Radish Peroxidase, fraction II. Luminescence was measured for 10-30 minutes and the area under the […] curve was divided by that from a control experiment to give the activity expressed as fold change.
Each assay indicated below was performed at a different site, at a different time, by different personnel and/or using different cell lines, concentrations and controls. The cell line, concentration of example compound and control used in respect of each assay were as indicated below. The values obtained from these different setups (each using an otherwise identical assay) are given as Activity A, B, C, D or E in Table 5 below. The values are expressed as fold increase of NADPH activity in the presence of the relevant of compound (as indicated below) compared to the relevant control (as indicated below).
Activity A: HL-60 cells; 50 μM compound vs. blank Activity B: PLB-985 cells; 25 μM compound vs. blank Activity C, D and E: PLB-985 cells; 25 μM compound vs. DMSO

granulocytes and T cells = settings: H2O2 176-1.76 μM for 20 min
Protocol: In order to measure the effect of exogenous ROS on intracellular ROS content, single cell suspensions were prepared from rat spleens. After lysis of red blood cells (0.84% ammonium chloride) the cells were stained with antibody His-48-bio (anti-granulocyte) or R73-bio (anti-T cell receptor) followed by staining with streptavidine-APC. Cells were then resuspended in DMEM containing DHR-123 and incubated for 10 minutes at 37° C. […] After 20 minutes incubation, cells were washed, resuspended in PBS and acquired in a FACScalibur. […] Samples were analysed in triplicates.

[1] = setup C, read-out: Activity C (fold increase of NADPH activity compared to control)

Compound O=C(Cn1cc(C(=O)c2ccc3ccccc3c2)c(=O)c2cc3c(cc21)OCO3)Nc1ccc(Cl)cc1 [Example 1, N-(4-Chlorophenyl)-2-[6,7-methylenedioxy-3-(2-naphthoyl)-4-oxo-1-quinolinyl]-acetamide] has a fold induction at 25 µM (PLB-985 cells; [1]) of 45.3, a fold induction at 25 µM (PLB-985 cells; setup D, read-out: Activity D (fold increase of NADPH activity compared to control)) of 27.4 and a fold induction at 25 µM (PLB-985 cells; setup E, read-out: Activity E (fold increase of NADPH activity compared to control)) of 8.5. The “cellular ROS production (luminescence signal over time)” value (Rat granulocytes) was “clear induction of cellular ROS production” and the “T cells capacity to transfer arthritis to naive recipients” value (arthritogenic T cells) was “significantly alters the T cells capacity to transfer arthritis to naïve recipients”.

With COc1ccc(NC(=O)Cn2cc(C(=O)c3ccccc3)c(=O)c3cc4c(cc32)OCO4)c(OC)c1 [Example 84, 2-(3-Benzoyl-6,7-methylenedioxy-4-oxo-1-quinolinyl)-N-(2,4-dimethoxyphenyl)acetamide] the fold induction at 25 µM (PLB-985 cells; [1]) was 8.4, the “cellular ROS production (luminescence signal over time)” value (Rat granulocytes) was “clear induction of cellular ROS production” and the “T cells capacity to transfer arthritis to naive recipients” value (arthritogenic T cells) was “significantly alters the T cells capacity to transfer arthritis to naïve recipients”.

CCc1ccc(C(=O)c2cn(CC(=O)Nc3ccc(OC)cc3)c3cc4c(cc3c2=O)OCO4)cc1 [Example 98, N-p-Anisyl-2-[3-(4-ethylbenzoyl)-6,7-methylenedioxy-4-oxo-1-quinolinyl]acetamide] showed a fold induction at 50 µM (HL-60 cells) of 9.

Work on CCOc1ccc(NC(=O)Cn2cc(C(=O)c3ccccc3)c(=O)c3cc4c(cc32)OCO4)cc1 [Example 99, 2-(3-Benzoyl-6,7-methylenedioxy-4-oxo-1-quinolinyl)-N-(4-ethoxyphenyl)acetamide] yielded a fold induction at 50 µM (HL-60 cells) of 4.3.

With CCc1ccc(C(=O)c2cn(CC(=O)Nc3ccc(F)cc3)c3cc4c(cc3c2=O)OCO4)cc1 [Example 100, 2-[3-(4-Ethylbenzoyl)-6,7-methylenedioxy-4-oxo-1-quinolinyl]-N-(4-fluorophenyl)acetamide] the fold induction at 50 µM (HL-60 cells) was 2.9.

In the case of Cc1ccc(C(=O)c2cn(CC(=O)Nc3ccccc3C)c3cc4c(cc3c2=O)OCO4)cc1 [Example 101, 2-(6,7-Methylenedioxy-4-oxo-3-p-toluoyl-1-quinolinyl)-N-o-tolylacetamide], the fold induction at 50 µM (HL-60 cells) is reported as 2.1.

For OO [Example H2O2, Hydrogen peroxide, reference compound], the “mean arthritis severity in recipient rats” value (arthritogenic T cells; cells cultured 44 hours with Con A at lower concentrations of H2O2 (below 88 μM)) was “the effect is lost”, the “mean arthritis severity in recipient rats” value (arthritogenic T cells; cells cultured 44 hours with Con A in presence of 176 μM and 88 μM H2O2) was “significant reduction” and the “intracellular ROS” value (granulocytes and T cells) was “Intracellular ROS reflected amount of H2O2 added”.
